Results reported in US10065965B2, “Imidazo[1,2-B][1,2,4]triazine derivatives as antiparasitic agents” (GlaxoSmithKline Intellectual Property Development Limited, priority 2015, dated 2018).
≈ marks a conversion by molar mass, not a printed value.

Assays:
Leishmania donovani = assay: Assay 1 intramacrophage Leishmania donovani assay (potency readout); type: cell-based; settings: amastigotes in PMA-treated THP-1 macrophages, 96 h, average number of amastigotes per cell, minimum threshold 4.3, read-out: pEC50 value against Leishmania donovani (converted)
Procedure: (§1) The intramacrophage Leishmania assay was performed using a modified version of the method described in De Rycker et al. (Antimicrob Agents Chemother. 2013 July; 57(7):2913-22. Comparison of a high-throughput high-content intracellular Leishmania donovani assay with an axenic amastigote assay. De Rycker M, Hallyburton I, Thomas J, Campbell L, Wyllie S, Joshi D, Cameron S, Gilbert I H, Wyatt P G, Frearson J A, Fairlamb A H, Gray D W.). Procedure: 350 nl of compound was pre-dispensed into 384 well sterile intermediary plates. For single point screening, amphotericin B was added to all wells of column 24 as a positive control (final concentration 2 μM) and DMSO to column 23. For potency determinations, ten-point, one in three dilution curves were created with the highest concentration being 50 μM and on each plate a control curve of amphotericin B was included. Controls were as follows: columns 11 and 12: DMSO, columns 23 and 24: amphotericin B (final concentration 2 μM). To the intermediary plates, 35 μl of THP-1 media was added and plates were shaken for >5 min to ensure complete mixing. THP-1 cells (8,000 per well, 50 μl) were plated into black clear-bottom 384 well plates (Corning) in presence of 20 nM PMA. After 20 min at RT, the plates were incubated at 37° C. under 5% CO2 in a humidified incubator for 75 h. The cells were then washed with […] sterile phosphate buffered saline (PBS) supplemented with 1 mM CaCl2, 0.5 mM MgCl2, 0.1% (w/v) bovine serum albumin (PBS-A) and amastigotes were added to all wells at a multiplicity of infection of 5 (40,000 amastigotes per well). After 40 min at RT, plates were returned to the incubator. Amastigotes were incubated in the presence of THP-1 macrophages for 16 h. Any remaining extracellular amastigotes were subsequently removed with an overflow wash of 1 mL PBS-A per well (wash buffer is being aspirated from the top of the well as it is being dispensed) followed by addition of 25 μl of the compound pre-dilutions using a Fluidx Ipette-pro pipetting station. The final dilution of each compound was 200-fold. Plates were incubated for 96 h and then washed (250 μl PBS-A) and fixed (4% (v/v) formaldehyde-PBS, 30 min, RT). After fixation, the wells were washed with 250 μl PBS, stained (10 μg/mL DAPI, 0.4 μg mL-1 HCS Cellmask Deep Red in PBS+0.1% (v/v) Triton X-100, 30 min, RT) and washed with 250 μl PBS. Finally, PBS+0.05% (v/v) thimerosal was added to the wells, the plates were sealed and imaged on a high-content microscope (GE IN Cell 2000) using a 10× objective. Image analysis was carried out with GE IN Cell Analyzer 1000 Workstation using the “Multi Target Analysis” module. Settings for segmentation were as follows: nuclei: minimum area: 142.384 μm2, sensitivity: 81, method: top-hat; cells: characteristic area: 2500 μm2, sensitivity: 60, method: multiscale top-hat; organelles (amastigotes): granule size 1-3, 3 scales, sensitivity: 90, detection in entire cell. For each well, i) THP-1 cell count (cytotoxicity readout) and ii) average number of amastigotes per cell (potency readout) were calculated, both in terms of pEC50 values.

Trypanosoma brucei = assay: Assay 3 Trypanosoma brucei cell growth inhibition assay; type: cell-based; settings: T. b. brucei BSF427, 69 h + 4 h resazurin, maximum threshold 8.0, read-out: pEC50 value against Trypanosoma brucei (converted)
Procedure: Measurement of the ability of the compounds to inhibit trypanosome (T. b. brucei, BSF427, VSG118) cell growth was performed using a modification of the cell viability assay previously described by Raz et al. (Raz B.; Iten M.; Grether-Buhler Y.; Kaminski R.; Brun R. The Alamar Blue assay to determine drug sensitivity of African trypanosomes (T. b. rhodesiense and T. b. gambiense) in vitro. Acta Trop. 1997, 68, 139-147). Compounds were dissolved in DMSO at a top concentration of 10 mM and serially diluted in half log steps to achieve a range of final assay concentrations of 50 μM to 0.5 nM. Compound at each concentration (200-fold final) was added to clear 96-well tissue culture plates in a volume of 1 μL. Then 2000 cells per well in relevant growth medium (HMI-9T for T. brucei, a modification of HMI-9 as described by Hurumi et al. (Hirumi H.; Hirumi K. Continuous cultivation of Trypanosoma brucei blood stream forms in a medium containing a low concentration of serum-protein without feeder cell-layers. J. Parasitol. 1989, 75, 985-989.) where 0.2 mM 2-mercaptoethanol was replaced with 0.056 mM thiolglycerol, and MEM with 10% FBS for MRC5) were then added to columns 1-11 of the plates in a volume of 199 μL. To column 12, 200 μL of medium was added to provide a no cells control. Plates were then incubated at 37° C. in an atmosphere of 5% CO2 for 69 h, before the addition of 20 μL of 500 μM rezasurin solution, and a further incubation period of 4 h. Plates were then read on a BioTek flx800 fluorescent plate reader, and percentage inhibition was compared to the maximum and minimum assay controls. Concentration effect curves were fitted using nonlinear regression using XLFit 4.2 and EC50 values determined.

[1] = Assay 4 solubility assay, ChemiLuminescent Nitrogen Detection (CLND); type: physicochemical; settings: phosphate buffered saline, pH 7.4, aqueous buffer, kinetic from dmso stock, pH 7.4 PBS, from 10 mM DMSO stock, 1 h at room temperature
Summary of the method: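 Kinetic solubility: 10 mM DMSO stock diluted 5 µl into 100 µl pH 7.4 PBS, incubated 1 h at room temperature, then filtered. Filtrate quantified by HPLC with chemiluminescent nitrogen detection against ondansetron and caffeine standards; solubility in µM by linear-regression calibration.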

Trypanosoma cruzi [2] = assay: Assay 6 Trypanosoma cruzi intracellular assay (infected H9C2 cells); type: cell-based; settings: H9c2, in Rattus norvegicus, 72 h, infected H9C2 rat cardiomyocytes, read-out: pEC50 value against Trypanosoma cruzi (converted)
Summary of the method: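 Infected H9C2 rat cardiomyocytes (T. cruzi trypomastigotes, MOI 1, 18 h) plated at 2500 cells/well on compound, 11-point 1:3 curves from 50 μM top, 72 h at 37 °C in 2% FBS DMEM. Fixed, Draq5-stained, high-content imaged; algorithm counts parasites per cell, % infected cells and total host cells (cytotoxicity).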

Trypanosoma cruzi [3] = assay: Assay 2 Trypanosoma cruzi intracellular assay (infected Vero cells); type: cell-based; settings: 72 h, read-out: pEC50 value against Trypanosoma cruzi (converted)
Procedure: Compounds were dispensed into black 384-well assay plates (Corning) by acoustic dispensing (LabCyte ECHO). For potency determinations, ten-point one in three dilution curves were generated, with a top concentration of 50 μM. Vero cells were infected overnight with T. cruzi trypomastigotes in T225 tissue culture flasks at a multiplicity of infection of 5. Next, any remaining free trypomastigotes were washed away with serum free MEM media and the infected Vero cells were harvested by trypsinisation. The infected Vero cells were then plated into 384-well plates containing the compounds to be tested, at 4000 cells per well in MEM media with 1% FCS. After 72 h incubation at 37° C. in presence of 5% CO2, the plates were fixed with 4% formaldehyde for 20 minutes at room temperature and stained with 5 μg/ml Hoechst 33342. The plates were imaged on a Perkin Elmer Operetta high-content imaging system using a 20× objective. Images were analysed using the Columbus system (Perkin Elmer). The image analysis algorithm first identified the Vero nuclei followed by demarcation of the cytoplasm and identification of intracellular amastigotes. This algorithm reported mean number of parasites per Vero cell and total number of Vero cells.

[4] = Assay 6 Trypanosoma cruzi intracellular assay, cytotoxicity against H9c2 cells; type: cell-based; settings: rat, H9C2 cardiomyocytes infected with T. cruzi trypomastigotes, total number of H9C2 cells, minimum threshold 4.3, read-out: cytotoxicity against H9c2 cells, pEC50 (converted)
Procedure: Compounds were dispensed into black 384-well assay plates (Greiner) by acoustic dispensing (LabCyte ECHO). For potency determinations, eleven-point, one in three dilution curves were generated, with a top concentration of 50 μM. H9C2 rat cardiomyocytes cells were dispensed in T225 tissue culture flasks and after 4 hours they were infected during 18 hours with T. cruzi trypomastigotes in the same T225 tissue culture flasks at a multiplicity of infection of 1. Next, any remaining free trypomastigotes were washed away with PBS and the infected H9C2 cells were harvested by trypsinisation. The infected H9C2 cells were then plated into 384-well plates containing the compounds to be tested, at 2500 cells per well in DMEM media with 2% FBS, 1% Penicillin/Streptomocin, 2 mM L-Glutamine, 1 mM Na Pyruvate and 25 mM HEPES. After 72 h incubation at 37° C. in presence of 5% CO2, the plates were fixed and stained with 4% formaldehyde and 2 μM Draq5 for 3 hours at room temperature. The plates were imaged on a Perkin Elmer Opera high-content imaging system using a 20× air objective. Images were analysed using the Acapella building blocks system (Perkin Elmer). The image analysis algorithm first identified the H9C2 nuclei followed by demarcation of the cytoplasm and identification of intracellular amastigotes. This algorithm reported mean number of parasites per H9C2 cell, the percentage of infected H9C2 cells and the total number of H9C2 cells.

[5] = Assay 1 intramacrophage Leishmania donovani assay, THP-1 cell count (cytotoxicity readout); type: cell-based; settings: human, minimum threshold 4.3, read-out: cytotoxicity against THP-1 cells, pEC50 value (converted)
Procedure: as §1

[6] = Assay 5 Leishmania donovani intracellular assay, cytotoxicity against THP-1 cells; type: cell-based; settings: human, total number of THP-1 cells, minimum threshold 4.3, read-out: cytotoxicity against THP-1 cells, pEC50 value (converted)
Procedure: Compounds were dispensed into black 384-well assay plates (Greiner) by acoustic dispensing (LabCyte ECHO). For potency determinations, eleven-point, one in three dilution curves were generated, with a top concentration of 50 μM. THP-1 human monocytes cells were dispensed in T225 tissue culture flasks and differentiated using 30 nM of PMA, after 24 hours they were infected overnight using Leishmania donovani expressing Green Fluorescent Protein (eGFP) amastigotes in the same T225 tissue culture flasks at a multiplicity of infection of 10. Next, any remaining free amastigotes were washed away with PBS and the infected THP-1 cells were harvested by trypsinisation. The infected cells were then plated into 384-well plates containing the compounds to be tested, at 3000 cells per well in RPMI media with 2% FBS and 25 mM Sodium bicarbonate. After 96 h incubation at 37° C. in presence of 5% CO2, the plates were fixed with 4% formaldehyde for 30 minutes, washed with PBS and stained with 0.1 mg/mL of DAPI for 30 minutes and washed again with PBS. The plates were imaged on a Perkin Elmer Opera high-content imaging system using a 20× air objective with two expositions, one for DAPI stain and other for eGFP. Images were analysed using the Acapella building blocks system (Perkin Elmer). The image analysis algorithm first identified the THP-1 nuclei followed by demarcation of the cytoplasm and identification of intracellular amastigotes. This algorithm reported mean number of parasites per THP-1 cell, the percentage of infected THP-1 cells and the total number of THP-1 cells.

Compound | EC50 (Leishmania donovani) [µM] | EC50 (Trypanosoma brucei) [µM] | solubility at 1 h [1] [µM] | EC50 (Trypanosoma cruzi [2]) [µM] | EC50 (Trypanosoma cruzi [3]) [µM] | EC50 at 72 h [4] [µM] | EC50 at 96 h [5] [µM] | EC50 at 96 h [6] [µM]
CN(C)c1ccc(-c2cnc3nc(-c4cc(NC(=O)N5CCCC5)ccc4F)cn3n2)cn1 [Example 16, N-(3-(2-(6-(dimethyl-amino)pyridin-3-yl)imidazo[1,2-b][1,2,4]triazin-6-yl)-4-fluorophenyl)pyrrolidine-1-carboxamide] | > 50.1 | ≥ 20 | 1 to 6 (≈ 0.446 to 2.68 µg/mL) | 0.00501 to 0.631 |  |  |  | 
O=C(Nc1ccc(F)c(-c2cn3nc(-c4ccc(CCN5CCOCC5)cc4)cnc3n2)c1)N1CCCC1 [Example 39, N-(4-fluoro-3-(2-(4-(2-morpholinoethyl)phenyl)imidazo[1,2-b][1,2,4]triazin-6-yl)phenyl) pyrrolidine-1-carboxamide] | > 50.1 | ≥ 20 |  | 0.00501 to 0.631 |  |  |  | 
CN(C)S(=O)(=O)Nc1ccc(F)c(-c2cn3nc(N4CCOCC4)cnc3n2)c1 [Example 32, N-(4-fluoro-3-(2-morpholinoimidazo [1,2-b][1,2,4]triazin-6-yl)phenyl)-N′-dimethylsulfamide] | > 50.1 | ≥ 20 |  | 10 to 39.8 |  |  |  | 
O=S(=O)(Nc1ccc(F)c(-c2cn3nc(N4CCOCC4)cnc3n2)c1)N1CCCC1 [Example 10, N-(4-fluoro-3-(2-morpholinoimidazo[1,2-b][1,2,4]triazin-6-yl)phenyl)pyrrolidine-1-sulfonamide] |  | ≥ 20 |  | 10 to 39.8 | 20 |  |  | 
O=S(=O)(Nc1ccc(F)c(-c2cn3nc(N4CCOCC4)cnc3n2)c1)C1CCCC1 [Example 33, N-(4-fluoro-3-(2-morpholinoimidazo [1,2-b][1,2,4]triazin-6-yl)phenyl)cyclo-pentanesulfonamide] | > 50.1 |  |  | 10 to 39.8 |  | 0.794 to 3.16 |  | 
COc1ccc(CNCc2cccc(-c3cnc4nc(-c5cc(NC(=O)N6CCCC6)ccc5F)cn4n3)c2)cc1 [Example 45, N-(4-fluoro-3-(2-(3-(((4-methoxybenzyl)amino)methyl)phenyl)imidazo [1,2-b][1,2,4]triazin-6-yl)phenyl)pyrrolidine-1-carboxamide] |  |  | 10 to 83 (≈ 5.52 to 45.8 µg/mL) | 0.00501 to 0.631 |  | 0.794 to 3.16 | 3.98 to 15.8 | 2.51 to 10
CNCc1ccc(-c2cnc3nc(-c4cc(NC(=O)N5CCCC5)ccc4F)cn3n2)cc1 [Example 38, N-(4-fluoro-3-(2-(4-((methylamino)methyl)phenyl)imidazo[1,2-b] [1,2,4]triazin-6-yl)phenyl)pyrrolidine-1-carboxamide] |  |  | 10 to 83 (≈ 4.46 to 37 µg/mL) | 0.00501 to 0.631 |  | 0.794 to 3.16 | 3.98 to 15.8 | 2.51 to 10
